The record followed here is ChEMBL document CHEMBL3813666, “Discovery of 3-benzyl-1,3-benzoxazine-2,4-dione analogues as allosteric mitogen-activated kinase kinase (MEK) inhibitors and anti-enterovirus 71 (EV71) agents” (Bioorg Med Chem, 2016).

Data set [1] addresses Serine/threonine-protein kinase B-raf (Homo sapiens, UniProt P15056, Y340D/Y341D).
Data set [2] concerns Enterovirus A71. Kind of data set: Inhibition of VP1 expression in human rhabdomyosarcoma cells infected with EV71 BC08 GU475127 pre-treated for 1 hr followed by viral infection measured after 24 hrs by western blotting analysis. For orientation: A western blot detects proteins with antibodies after separation by electrophoresis.
Data set [3] can be described thus: Cytotoxicity activity against human rhabdomyosarcoma cells after 24 hrs by MTT assay. The data set is classed as cell-based, Rhabdomyosarcoma cell. Background: Formazan colour is commonly taken as a measure of viable cells.
Data set [4] addresses Dual specificity mitogen-activated protein kinase kinase; MEK1/2 (Homo sapiens) (UniProt P36507+Q02750). Kind of data set: Inhibition of MEK1/2 phosphorylation in human rhabdomyosarcoma cells infected with EV71 BC08 GU475127 at 6.25 to 25 uM pre-treated for 1 hr followed by viral infection measured after 24 hrs by western blotting analysis.
A short description of data set [5]: Therapeutic index, ratio of CC50 for human rhabdomyosarcoma cells to EC50 for EV71 BC08 GU475127 infected in human rhabdomyosarcoma cells. As to conditions: read-out: Ratio CC50/EC50.
Data set [6] concerns Enterovirus A71. The data set is described as follows: Antiviral activity against EV71 BC08 GU475127 infected in human rhabdomyosarcoma cells assessed as reduction in viral induced cytopathic effect measured after 24 hrs by phase-contrast microscopy. The data set is classed as functional, organism-based. The conditions noted are these: Enterovirus A, BC08 GU475127, 24 h.
Data set [7] can be described thus: Non-competitive inhibition of N-terminal GST-tagged human BRAF/MEK1/RAF1 Y340D/Y341D double mutant measured after 2 hrs in presence of 300 uM of ATP by TR-FRET assay.
Data set [8] can be described thus: Non-competitive inhibition of N-terminal GST-tagged human BRAF/MEK1/RAF1 Y340D/Y341D double mutant measured after 2 hrs in presence of 100 uM of ATP by TR-FRET assay. For orientation: In TR-FRET formats the signal depends on donor and acceptor labels being close together.
Data set [9] is described as follows: Non-competitive inhibition of N-terminal GST-tagged human BRAF/MEK1/RAF1 Y340D/Y341D double mutant measured after 2 hrs in presence of 33.33 uM of ATP by TR-FRET assay.
Data set [10] has as its target Dual specificity mitogen-activated protein kinase kinase 1 (Homo sapiens) (UniProt Q02750). The conditions noted are these: at 6.25 to 25 µM.

The source made the active and inactive calls. The calls are words filed in the database; no cut-off is given here.

Serine/threonine-protein kinase B-raf, sequence (P15056 whole entry, looked up, stated change not applied): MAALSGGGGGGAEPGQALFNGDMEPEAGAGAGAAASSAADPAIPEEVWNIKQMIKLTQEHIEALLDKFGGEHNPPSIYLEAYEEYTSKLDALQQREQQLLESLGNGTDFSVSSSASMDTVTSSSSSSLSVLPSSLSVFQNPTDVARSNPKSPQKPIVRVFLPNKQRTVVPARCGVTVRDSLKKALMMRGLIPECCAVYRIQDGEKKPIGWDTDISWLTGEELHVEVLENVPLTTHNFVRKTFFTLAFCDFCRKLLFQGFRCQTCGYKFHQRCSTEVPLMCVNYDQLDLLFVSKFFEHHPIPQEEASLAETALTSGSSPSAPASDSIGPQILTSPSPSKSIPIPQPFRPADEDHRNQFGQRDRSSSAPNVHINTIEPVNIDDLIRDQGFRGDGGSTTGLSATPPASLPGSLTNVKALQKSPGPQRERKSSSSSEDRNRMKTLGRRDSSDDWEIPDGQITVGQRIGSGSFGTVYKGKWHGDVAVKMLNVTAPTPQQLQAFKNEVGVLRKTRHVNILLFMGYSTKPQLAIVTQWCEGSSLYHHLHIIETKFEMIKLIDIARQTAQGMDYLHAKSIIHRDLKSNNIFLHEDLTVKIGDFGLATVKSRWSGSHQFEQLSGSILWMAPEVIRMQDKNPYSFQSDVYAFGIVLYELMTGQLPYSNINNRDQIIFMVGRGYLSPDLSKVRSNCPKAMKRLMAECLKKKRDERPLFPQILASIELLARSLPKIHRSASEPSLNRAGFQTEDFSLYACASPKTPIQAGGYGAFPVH
Dual specificity mitogen-activated protein kinase kinase; MEK1/2 (Homo sapiens), sequence (P36507 whole entry, looked up): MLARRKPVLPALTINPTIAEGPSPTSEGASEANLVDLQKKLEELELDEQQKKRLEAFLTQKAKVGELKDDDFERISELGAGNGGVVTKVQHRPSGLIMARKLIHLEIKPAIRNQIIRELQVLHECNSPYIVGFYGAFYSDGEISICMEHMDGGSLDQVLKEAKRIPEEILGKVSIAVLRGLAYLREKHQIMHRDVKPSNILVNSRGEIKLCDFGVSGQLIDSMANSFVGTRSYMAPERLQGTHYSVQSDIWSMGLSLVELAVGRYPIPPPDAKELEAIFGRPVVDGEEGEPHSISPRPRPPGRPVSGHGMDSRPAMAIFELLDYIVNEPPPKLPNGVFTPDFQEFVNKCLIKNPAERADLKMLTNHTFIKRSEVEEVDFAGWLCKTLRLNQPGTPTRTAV
Dual specificity mitogen-activated protein kinase kinase; MEK1/2 (Homo sapiens), sequence (Q02750 whole entry, looked up): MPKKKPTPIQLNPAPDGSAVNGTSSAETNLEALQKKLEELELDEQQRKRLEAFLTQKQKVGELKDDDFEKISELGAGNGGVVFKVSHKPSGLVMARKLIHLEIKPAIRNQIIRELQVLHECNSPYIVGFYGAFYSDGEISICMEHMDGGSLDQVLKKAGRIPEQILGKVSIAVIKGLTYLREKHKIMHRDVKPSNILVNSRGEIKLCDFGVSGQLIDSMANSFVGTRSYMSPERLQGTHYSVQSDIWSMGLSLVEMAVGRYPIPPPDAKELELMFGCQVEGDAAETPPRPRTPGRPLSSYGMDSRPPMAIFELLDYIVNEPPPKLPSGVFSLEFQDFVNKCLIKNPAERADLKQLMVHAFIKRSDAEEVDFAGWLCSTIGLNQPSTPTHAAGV
Dual specificity mitogen-activated protein kinase kinase 1 (Homo sapiens), sequence (Q02750 whole entry): as the sequence (Q02750 whole entry, looked up) above

On to `CNS(=O)(=O)Nc1cccc(Cn2c(=O)oc3cc(OC(C)=O)ccc3c2=O)c1F`, for which the IC50 – broadly, the concentration at which inhibition is half-maximal – in data set [1] came out at 610 nM.
On the same count and under the same terms, as for `CN(C)C(=O)Oc1ccc2c(=O)n(Cc3cccc(NS(=O)(=O)NCC(F)(F)F)c3F)c(=O)oc2c1`, the figure is 420 nM; as for `CN(C)C(=O)Oc1ccc2c(=O)n(Cc3cccc(NS(=O)(=O)Nc4ccccc4)c3F)c(=O)oc2c1`, 1640 nM.
Consider `CN(C)C(=O)Oc1ccc2c(=O)n(Cc3cccc(NS(N)(=O)=O)c3F)c(=O)oc2c1`, for which, in data set [1], the IC50 worked out at 840 nM.
As to `O=C(NOC[C@H](O)CO)c1ccc(F)c(F)c1Nc1ccc(I)cc1F`, the inhibition entry in [2] is “Dose-dependent effect”.
In data set [1], `CN(C)C(=O)Oc1ccc2c(=O)n(Cc3cccc(NS(C)(=O)=O)c3F)c(=O)oc2c1` registered an IC50 of 300 nM.
Still for that read-out and setting: under `CN(C)C(=O)Oc1ccc2c(=O)n(Cc3ccc(F)cc3)c(=O)oc2c1` stands more than 10000 nM; under `CN(C)C(=O)Oc1ccc2c(=O)n(Cc3cccc([N+](=O)[O-])c3)c(=O)oc2c1`, more than 10000 nM; under `CNS(=O)(=O)Nc1cccc(Cn2c(=O)oc3cc(OS(C)(=O)=O)ccc3c2=O)c1F`, 2540 nM.
`CN(C)C(=O)Oc1ccc2oc(=O)n(Cc3cccc(NS(C)(=O)=O)c3F)c(=O)c2c1` registered an IC50 in [1] of more than 10000 nM.
The compound `CN(C)C(=O)Oc1ccc2c(=O)n(Cc3cccc(NS(=O)(=O)NCc4ccccc4)c3F)c(=O)oc2c1` yielded an IC50 in data set [1] of 1490 nM.
Regarding `CN(C)C(=O)Oc1ccc2c(=O)n(Cc3cccc(NS(=O)(=O)NCCC#N)c3F)c(=O)oc2c1`, in data set [3], the CC50 (commonly the concentration giving 50% cytotoxicity) at 24 h is more than 100000 nM. Also, in [4], the inhibition result is “Active”. Further, the inhibition entry in data set [2] is “Dose-dependent effect”. For the same compound, the selectivity ratio in [5] was more than 25. In data set [6], the EC50 (in general, the concentration that produces a half-maximal response) is 3920 nM. In data set [1], this compound returned an IC50 of 60 nM.
`CNC(=O)c1cc(Oc2ccc(NC(=O)Nc3ccc(Cl)c(C(F)(F)F)c3)cc2)ccn1` [SORAFENIB]: the CC50 at 24 h in data set [3] was 7050 nM.
Turning to `CN(C)C(=O)Oc1ccc2c(=O)n(Cc3ccc(NS(C)(=O)=O)cc3)c(=O)oc2c1`, the IC50 in data set [1] was more than 10000 nM.
In the case of `CN(C)C(=O)Oc1ccc2c(=O)n(Cc3ccccc3NS(C)(=O)=O)c(=O)oc2c1`, the IC50 in data set [1] was more than 10000 nM.
In data set [1], `CN(C)C(=O)Oc1ccc2c(=O)n(Cc3cccc(NS(C)(=O)=O)c3)c(=O)oc2c1` displayed an IC50 of 5920 nM.
For the compound `CNS(=O)(=O)Nc1cccc(Cn2c(=O)oc3cc(OC(=O)N(C)C)ccc3c2=O)c1F`, the CC50 at 24 h in data set [3] was more than 100000 nM. Besides, the inhibition result in data set [4] and in data set [10] was “Active” throughout. The inhibition entry in [2] was “Dose-dependent effect”. Moreover, the selectivity ratio in [5] was more than 98. The IC50 in data set [7] came to 54 nM; in [8], 56 nM; in [9] it was 181 nM; in data set [1], 55 nM. For the same compound, the EC50 in [6] came out at 1020 nM.
`CCC(=O)Oc1ccc2c(=O)n(Cc3cccc(NS(=O)(=O)NC)c3F)c(=O)oc2c1` came in with an IC50 in data set [1] of 230 nM.
In data set [1], `CNS(=O)(=O)Nc1cccc(Cn2c(=O)oc3cc(OC(=O)C(C)C)ccc3c2=O)c1F` had an IC50 of 720 nM.
Still for that read-out and setting: under `CS(=O)(=O)Nc1cccc(Cn2c(=O)oc3cc(OC(=O)c4ccccc4)ccc3c2=O)c1F` stands more than 10000 nM; under `CN(C)C(=O)Oc1ccc2c(=O)n(Cc3ccc(F)c(NS(C)(=O)=O)c3)c(=O)oc2c1`, 9870 nM.
Still for that read-out and setting: under `CCS(=O)(=O)Nc1cccc(Cn2c(=O)oc3cc(OC(=O)N(C)C)ccc3c2=O)c1F` stands 200 nM; under `COc1ccc2c(=O)n(Cc3cccc(NS(=O)(=O)NCCC#N)c3F)c(=O)oc2c1`, more than 10000 nM; under `CC(=O)Nc1cccc(Cn2c(=O)oc3cc(OC(=O)N(C)C)ccc3c2=O)c1`, more than 10000 nM.
On the same count and under the same terms, under `CCCC(=O)Oc1ccc2c(=O)n(Cc3cccc(NS(=O)(=O)NC)c3F)c(=O)oc2c1` stands 1200 nM.
In data set [1], `CCS(=O)(=O)Oc1ccc2c(=O)n(Cc3cccc(NS(=O)(=O)NC)c3F)c(=O)oc2c1` yielded an IC50 of 670 nM.
Still for that read-out and setting: as for `CN(C)C(=O)Oc1ccc2c(=O)n(Cc3ccccc3F)c(=O)oc2c1`, the figure is more than 10000 nM; as for `CC(C)NS(=O)(=O)Nc1cccc(Cn2c(=O)oc3cc(OC(=O)N(C)C)ccc3c2=O)c1F`, 210 nM.
